# Experiments:
# Stat5 = Stat5 phosphorylation in cancer cells (summary); format: cell-based, human; settings: read-out: IC50, inhibition of Stat5 phosphorylation, range over cell lines
# Text: Down-regulation of Stat5 phosphorylation by IST5 can theoretically be caused by IST5 blocking Stat5 monomer docking to the activated receptor-Jak2 complex (Figure 1) and/or by IST5 inhibition of Jak2 kinase activity. […] To further investigate whether IST5 is able to disrupt dimerization of Stat5 molecules, we employed two separate cell-based assays. […] Because both phosphorylation and dimerization of Stat5 were inhibited at similar concentrations of IST5, it is difficult to determine whether disruption of Stat5 dimerization by IST5 is caused by suppression of Stat5 phosphorylation or a direct effect of IST5 in hindering Stat5 dimer-formation or both events occurring at the same time in the cell. However, it is known that heteromolecular interactions are easier to disrupt than interactions between two Stat5 monomers implying that the primary mechanism of action of IST5 may be suppression of Stat5 docking to the receptor-kinase complex. It is important to note that bypassing tyrosine kinases responsible for Stat5 phosphorylation by utilizing direct Stat5 inhibitor would be advantageous for therapy development for Stat5-regulated cancers because targeting Stat5 directly is likely to cause less off-target side effects than targeting kinases or cell surface receptors.
# athymic nude mice = test: Chronic toxicity study (28 days), plasma biochemistry; format: in vivo; settings: i.p. 28 days; for A-G Ratio / ALT / AST / Albumin / Alk.Ptase / Bile Acid / Chol / TBIL / Globulin / BUN: plasma; for Globulin: in g/dL (unit assumed); for BUN: in mg/dL (unit assumed)
# Method: Forty athymic nude mice (8 weeks) (Crl:NU/NCr-Foxn1n) of either sex (20 males and 20 females) were randomized into four groups (n = 5/group) for either sex. The randomization of the mice was carried out based on their baseline body weight measured on day 0. IST5 or vehicle (0.3% hydroxypropyl cellulose, (Sigma-Aldrich, MO, St. Louis, MO, USA) were administered to the mice by i.p. injection for 28 days. The mice were observed daily for behavior, and body weights were measured on every 3rd day throughout the 28-day experimental protocol. The monitoring was started immediately after the compound administration and continued for 2 h for any acute signs of toxicity. In addition, the mice were monitored daily for any signs of toxicity using several clinical parameters. The clinical signs that were taken into consideration were as follows: 1) weight loss: rapid weight loss ([…]) or, weight loss of extended period time ([…]); 2) rapid growth of mass or masses; 3) paralysis or paresis (partial paralysis); 4) frank bleeding from any orifice; 5) lesions interfering with eating or drinking; 6) diarrhea (non-formed/soft stool or diarrhea liquid stool); 6) loss of body temperature; 7) appearance: rough coat, porphyrin staining (red or brown staining around eyes, nose, or along front paws, distended abdomen, alopecia; 8) eyes: ocular discharge, pale appearance, distinct icterus (jaundice or yellowing of the eyes); 9) respiration: coughing or wheezing, rales or crackling in the lungs, respiration increased or labored; 10) behavioral: hunched posture, huddling in a corner, lethargy, avoiding cagemate(s), head tilt, tremors (head, body, tail), spasticity (stiff muscles), ataxia (loss of voluntary muscle movement), seizures or convulsions, circling, persistent self-induced trauma, chattering or vocalizations, loss of startle response, loss of righting reflex. The clinical chemistry parameters measured were the same as those used for the acute toxicity study.
# PC cells = system: PC cells; design: method as in PMID 18316550, PMID 23942095, PMID 26362718, PMID 20966544, PMID 20233708; settings: cited from earlier work
compound,measurement,setting,value
O=P(O)(O)OCC1OC(n2cnc3c(NCc4ccccc4)ncnc32)C(O)C1O (centres unmarked) [IST5],IC50,Stat5,1100 to 1300 nM
same,BW,athymic nude mice; 10 mg/kg,22.5 ± 1.1 gm
same,HCT,athymic nude mice; 10 mg/kg,0.43 ± 0.02 L/L
same,A-G Ratio,athymic nude mice; 10 mg/kg,1.93 ± 0.08
same,ALT,athymic nude mice; 10 mg/kg,50.4 ± 3.71 U/L
same,AST,athymic nude mice; 10 mg/kg,329.9 ± 30.9 U/L
same,Albumin,athymic nude mice; 10 mg/kg,2.69 ± 0.05 g/dL
same,Alk.Ptase,athymic nude mice; 10 mg/kg,51.3 ± 0.72 U/L
same,Bile Acid,athymic nude mice; 10 mg/kg,21.0 ± 12.7 µmol/dL
same,Chol,athymic nude mice; 10 mg/kg,65.0 ± 2.09 mg/dL
same,TBIL,athymic nude mice; 10 mg/kg,0.26 ± 0.02 mg/dL
same,Globulin,athymic nude mice; 10 mg/kg,1.41 ± 0.04
same,BUN,athymic nude mice; 10 mg/kg,20.5 ± 0.82
same,BW,athymic nude mice; 30 mg/kg,23.5 ± 0.6 gm
same,HCT,athymic nude mice; 30 mg/kg,0.45 ± 0.01 L/L
same,A-G Ratio,athymic nude mice; 30 mg/kg,1.9 ± 0.11
same,ALT,athymic nude mice; 30 mg/kg,45.2 ± 3.76 U/L
same,AST,athymic nude mice; 30 mg/kg,336 ± 57.1 U/L
same,Albumin,athymic nude mice; 30 mg/kg,2.74 ± 0.07 g/dL
same,Alk.Ptase,athymic nude mice; 30 mg/kg,53.0 ± 1.93 U/L
same,Bile Acid,athymic nude mice; 30 mg/kg,2.39 ± 0.32 µmol/dL
same,Chol,athymic nude mice; 30 mg/kg,70.3 ± 1.38 mg/dL
same,TBIL,athymic nude mice; 30 mg/kg,0.21 ± 0.01 mg/dL
same,Globulin,athymic nude mice; 30 mg/kg,1.47 ± 0.07
same,BUN,athymic nude mice; 30 mg/kg,25 ± 1.32
same,BW,athymic nude mice; 100 mg/kg,23.5 ± 0.9 gm
same,HCT,athymic nude mice; 100 mg/kg,0.43 ± 0.03 L/L
same,ALT,athymic nude mice; 100 mg/kg,50.9 ± 3.83 U/L
same,AST,athymic nude mice; 100 mg/kg,327 ± 4.03 U/L
same,Albumin,athymic nude mice; 100 mg/kg,2.74 ± 0.04 g/dL
same,Alk.Ptase,athymic nude mice; 100 mg/kg,53.3 ± 1.76 U/L
same,Bile Acid,athymic nude mice; 100 mg/kg,2.98 ± 0.29 µmol/dL
same,Chol,athymic nude mice; 100 mg/kg,75.9 ± 2.06 mg/dL
same,BUN,athymic nude mice; 100 mg/kg,23.0 ± 0.07
same,apoptotic death of PC cells,PC cells,induce extensive apoptotic death

# — PMC7724566, “Prospects for Clinical Development of Stat5 Inhibitor IST5-002: High Transcriptomic Specificity in Prostate Cancer and Low Toxicity In Vivo” (Cancers, 2020)
